Data reported in publication PMC2799458, “Diastereomers of the Brominated Flame Retardant 1,2-Dibromo-4-(1,2 dibromoethyl)cyclohexane Induce Androgen Receptor Activation in the HepG2 Hepatocellular Carcinoma Cell Line and the LNCaP Prostate Cancer Cell Line” (Environmental Health Perspectives, 2009).
pEC50, pIC50: −log10 of the molar value. Read-outs that look alike come from different tables or passages of the source. Marks after values point to notes of the source that are not given here.

Assays:
[1] = molecular target: T1, hAR (Homo sapiens, UniProt P10275); test: AR activation, slp-ARE-Luc reporter in HepG2 cells transfected with pCMVhAR; assay type: cell-based
T1 construct: expressed in transfected cells; host or cells: HepG2
T1 sequence (P10275 1-920): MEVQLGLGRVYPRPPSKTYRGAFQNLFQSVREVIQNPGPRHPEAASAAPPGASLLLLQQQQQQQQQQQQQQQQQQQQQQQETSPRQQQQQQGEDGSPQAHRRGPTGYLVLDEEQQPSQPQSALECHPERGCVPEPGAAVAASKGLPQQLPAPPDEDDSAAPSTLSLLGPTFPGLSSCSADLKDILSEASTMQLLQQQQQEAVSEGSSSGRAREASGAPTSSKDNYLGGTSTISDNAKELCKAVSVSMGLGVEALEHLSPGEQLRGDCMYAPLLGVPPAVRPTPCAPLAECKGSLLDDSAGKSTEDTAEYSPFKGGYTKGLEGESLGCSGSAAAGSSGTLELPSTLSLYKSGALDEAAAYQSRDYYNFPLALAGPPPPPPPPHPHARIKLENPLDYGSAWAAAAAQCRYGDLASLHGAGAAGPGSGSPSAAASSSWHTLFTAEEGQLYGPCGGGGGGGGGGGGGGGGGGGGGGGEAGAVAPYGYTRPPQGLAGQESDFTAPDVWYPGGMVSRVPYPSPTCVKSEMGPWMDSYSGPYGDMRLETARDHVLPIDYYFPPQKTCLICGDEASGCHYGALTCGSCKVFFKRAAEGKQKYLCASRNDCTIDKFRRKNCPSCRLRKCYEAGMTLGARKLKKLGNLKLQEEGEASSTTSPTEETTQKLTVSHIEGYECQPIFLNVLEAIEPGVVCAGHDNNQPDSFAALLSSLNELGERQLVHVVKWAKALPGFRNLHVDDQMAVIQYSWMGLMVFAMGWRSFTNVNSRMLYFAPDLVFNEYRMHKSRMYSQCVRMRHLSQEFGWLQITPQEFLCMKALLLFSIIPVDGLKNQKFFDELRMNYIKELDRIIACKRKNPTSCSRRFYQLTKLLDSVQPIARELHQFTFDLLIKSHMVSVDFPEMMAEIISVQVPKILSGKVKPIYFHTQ

[2] = molecular target: T2, AR-LBD (Rattus norvegicus, UniProt P15207); test: PolarScreen AR competition assay (polarization fluorometry); assay type: binding
T2 construct: purchased PanVera, Madison, WI, USA
T2 sequence (P15207 651-882 limits assumed): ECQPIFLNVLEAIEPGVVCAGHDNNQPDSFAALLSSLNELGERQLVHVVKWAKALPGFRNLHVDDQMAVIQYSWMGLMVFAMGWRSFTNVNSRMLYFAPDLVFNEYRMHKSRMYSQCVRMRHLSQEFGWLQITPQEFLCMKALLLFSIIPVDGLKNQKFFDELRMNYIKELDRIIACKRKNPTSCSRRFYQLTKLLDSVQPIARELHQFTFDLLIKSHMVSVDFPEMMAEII
Experimental: The final concentration of AR LBD was 50 nM. […] All analyses were performed in triplicate.

[3] = test system: human androgen receptor (hAR); set-up: method as in Araki et al. 2005; conditions: at high concentrations; ref Araki et al. 2005; cited from earlier work
[4] = test system: ER; set-up: method as in Blair et al. (2000); conditions: natural ligand; ref Blair et al. (2000); cited from earlier work
[5] = test system: ER; set-up: method as in Pillon et al. (2005); conditions: natural ligand; ref Pillon et al. (2005); cited from earlier work
[6] = test system: ER; conditions: 17β-estradiol set to 100%, cited from earlier work
[7] = test system: AR; conditions: DHT set to 100%, cited from earlier work
[8] = test system: ER; conditions: 17β-estradiol set to 100%, cited from earlier work; remark: listed apart in the source
[9] = test system: AR; conditions: read-out: IC50 AR; natural ligand; ref Cabeza et al. (2004); cited from earlier work
[10] = test system: HepG2 cells; conditions: 21 hr after addition, ref Simon and Mueller 2006; cited from earlier work
[11] = test system: AR; conditions: read-out: EC50 AR; natural ligand; ref Xu et al. (2005); cited from earlier work
[12] = test system: AhR; conditions: TCDD set to 100%, cited from earlier work
[13] = test system: L5178Y tk^+/tk^− mouse lymphoma-cell; set-up: method as in McGregor et al. 1991; conditions: ref McGregor et al. 1991; cited from earlier work
[14] = test system: AhR; set-up: method as in Westerink et al. (2008); conditions: ref Westerink et al. (2008); cited from earlier work
[15] = test system: AhR; set-up: method as in Bonefeld-Jørgensen et al. (2007); conditions: ref Bonefeld-Jørgensen et al. (2007); cited from earlier work
[16] = test system: AhR; test: Relative binding affinity for AhR (Table 4); set-up: species or system human; conditions: TCDD as reference ligand set to 100%
Text: Table 4 RBA of ligands for human receptors. | column: AhR / RBA

[17] = test system: AR; set-up: method as in Viswanath et al. (2008); conditions: DHT set to 100%; ref Viswanath et al. (2008); cited from earlier work
[18] = test system: AhR; test: Relative activation factor for AhR (Table 4); assay type: cell-based, human; conditions: TCDD as reference ligand set to 100%
Text: Table 4 RBA of ligands for human receptors. | column: AhR / RAF

[19] = test system: PR; set-up: method as in Viswanath et al. (2008); conditions: natural ligand; ref Viswanath et al. (2008); cited from earlier work
[20] = test system: PR; set-up: method as in Lenasi and Breskvar (2004); conditions: natural ligand; ref Lenasi and Breskvar (2004); cited from earlier work
[21] = ref Bonefeld-Jørgensen et al. (2007)

BrC[C@@H](Br)[C@H]1CC[C@@H](Br)[C@H](Br)C1 (mixture of isomers) [TBECH-β, rac-(1R,2R)-1,2-dibromo-(4S)-4-[(1S)1,2-dibromoethyl]cyclohexane]
pEC50 [1]: 6.53 | pIC50 [2]: 6.18

CC(C)(C)c1ccc2c(c1)C(=O)c1ccccc1C2=O [2-tert-butylanthraquinone]
agonism to hAR [3]: weak agonists

ClC1=C(Cl)C2(Cl)C3C4C=CC(C4)C3C1(Cl)C2(Cl)Cl (centres unmarked) [Aldrin]
ER RBA ([6]; ref Sonneveld et al. (2005)): 0.0029 ^h % | AR RBA ([7]; ref Fang et al. (2003)): 0.007 ^f %

CC(C)(c1ccc(O)cc1)c1ccc(O)cc1 [Bisphenol A]
ER RBA ([6]; ref Blair et al. (2000)): 0.0077 ^a % | AR RBA ([7]; ref Scippo et al. (2004)): 0.0018 ^c % | ER RAF [8, 21]: 0.0183 ^d %

C[C@]12CCC(=O)C[C@@H]1CC[C@@H]1[C@@H]2CC[C@]2(C)[C@@H](O)CC[C@@H]12 [DHT, dihydrotestosterone]
pIC50 [9]: […] | reduction of hormone by metabolism [10]: 46% | pEC50 [11]: […]

ClC1=C(Cl)[C@]2(Cl)[C@@H]3[C@@H]4C[C@@H]([C@H]5O[C@@H]45)[C@@H]3[C@@]1(Cl)C2(Cl)Cl [Dieldrin]
ER RBA ([6]; ref Sonneveld et al. (2005)): 0.0019 ^h % | ER RAF ([8]; ref Pillon et al. (2005)): 0.00001 ^b %

Clc1ccc(-c2ccc(Cl)c(Cl)c2)cc1Cl [PCB 77, 3,3′,4,4′-tetrachlorobiphenyl]
AhR RAF ([12]; ref Zeiger et al. (2001)): 0.025 ^i % | ER RBA ([6]; ref Blair et al. (2000)): < 0.0003 ^a %

BrCC(Br)C1CCC(Br)C(Br)C1 (centres unmarked) [TBECH, 1,2-dibromo-4-(1,2 dibromoethyl)cyclohexane]
mutagenicity [13]: mutagenic

Clc1cc2c(cc1Cl)Oc1cc(Cl)c(Cl)cc1O2 [TCDD, 2,3,7,8-tetrachlorodibenzo-p-dioxin, reference compound]
pEC50 [14]: 10.31 | pIC50 [15]: 10.19 | AhR RBA [16]: 100% | ER RBA ([6]; ref Viswanath et al. (2008)): < 0.0002 ^g % | AR RBA ([7]; ref Viswanath et al. (2008)): 0.0013 ^g % | AR RAF [17]: < 0.0013 ^g % | ER RAF ([8]; ref Viswanath et al. (2008)): 0.00012 ^g % | AhR RAF [18]: 100%

C[C@]12CC[C@H]3[C@@H](CCC4=CC(=O)CC[C@@]43C)[C@@H]1CC[C@@H]2O [Testosterone, testosterone]
reduction of hormone by metabolism [10]: 82%

C=CC1(C)OC(=O)N(c2cc(Cl)cc(Cl)c2)C1=O (centres unmarked) [Vinclozolin]
ER RBA ([6]; ref Blair et al. (2000)): < 0.0009 ^a % | AR RBA ([7]; ref Fang et al. (2003)): 0.0023 ^f % | AR RAF [17]: 0.0126 ^g %

O=C1c2ccccc2-c2cccc3cccc1c23 [benzoanthrone]
agonism to hAR [3]: weak agonists

Clc1ccc(C(c2ccccc2Cl)C(Cl)(Cl)Cl)cc1 (centres unmarked) [o,p′-DDT]
ER RBA ([6]; ref Blair et al. (2000)): 0.0014 ^a % | AR RBA ([7]; ref Fang et al. (2003)): 0.0149 ^f % | AR RAF [17]: 0.0126 ^g % | ER RAF ([8]; ref Legler et al. (1999)): 0.0009 ^e %

Nonylphenol
AhR RAF [12, 21]: 0.0003 ^d % | ER RBA ([6]; ref Blair et al. (2000)): 0.037 ^a % | AR RBA ([7]; ref Scippo et al. (2004)): 0.0523 ^c % | ER RAF ([8]; ref Pillon et al. (2005)): 0.00016 ^b %
